Patent US12378248B2 (The United States of America, as represented by the …, priority 2018, dated 2025)
Positions count from the first letter of the chain named.

Columns and labels:
mice = test: Tail suspension test, immobility time; type: in vivo, mouse; conditions: 3, 10 or 20 mg/kg i.p.
Procedure: 1 hour after administration of compounds, the mice were individually suspended by their tails for 6 minutes, and the average amount of time the mice were immobile was determined. […]

[1] = Stability in simulated gastric fluid; type: physicochemical; conditions: pH 1.60, 37° C., after 120 min
[2] = Plasma protein binding at 10 μM; type: in vitro ADME, rat; conditions: unbound percent ± standard deviation
Procedure: (§1) Plasma protein binding in human plasma, mouse plasma, and rat plasma was determined. Verapamil and warfarin served as positive controls. The results are expressed as unbound percent±standard deviation.

[3] = Plasma protein binding at 10 μM; type: in vitro ADME, human; conditions: unbound percent ± standard deviation
Procedure: as §1

wild-type C57BL/6J mice [4] = test: Locomotor activity by telemetry after ip dosing; type: in vivo, mouse; conditions: average from dosing to 60 min, mean±SD
Procedure: (§2) Compounds were dosed ip. Tb and activity were measured by telemetry and the averages from dosing to 60 min were calculated. […] Data are for the highest dose used and are mean±SD from 3 to 22 mice/group (usually 5-7). P values are unpaired t-Test vs vehicle-treated controls assayed simultaneously. Vehicle data are mean±SD from all (n=83) vehicle treated mice.

[5] = Plasma protein binding at 10 μM; type: in vitro ADME, mouse; conditions: unbound percent ± standard deviation
Procedure: as §1

hA3AR = molecular target: T1, hA3AR (Homo sapiens, UniProt P0DMS8); test: Radioligand binding in membranes of CHO cells expressing hA3AR; conditions: read-out: A3AR % inhibition or Ki; for Ki: (h)
T1 construct: expressed in transfected cells; host or cells: CHO
T1 sequence (P0DMS8 1-318): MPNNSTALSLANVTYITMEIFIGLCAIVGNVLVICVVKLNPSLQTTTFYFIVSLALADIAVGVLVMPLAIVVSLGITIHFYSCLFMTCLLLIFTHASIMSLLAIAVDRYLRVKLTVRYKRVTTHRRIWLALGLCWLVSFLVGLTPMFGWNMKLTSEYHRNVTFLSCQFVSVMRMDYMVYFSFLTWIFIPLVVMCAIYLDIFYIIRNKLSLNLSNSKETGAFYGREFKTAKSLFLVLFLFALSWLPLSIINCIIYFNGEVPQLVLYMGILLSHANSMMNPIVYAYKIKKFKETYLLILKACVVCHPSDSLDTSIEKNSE

wild-type C57BL/6J mice [6] = test: Hypothermia (Tb by telemetry) after ip dosing; type: in vivo, mouse; conditions: for Tb (° C.): average from dosing to 60 min, mean±SD
Procedure: as §2

mA3AR [7] = molecular target: T2, mA3AR (Mus musculus, UniProt Q61618); test: Guanine nucleotide ([35S]GTPγS) binding assay; type: biochemical; conditions: effect of 10 μM test compound as % of 10 μM 16
T2 sequence (Q61618 1-319): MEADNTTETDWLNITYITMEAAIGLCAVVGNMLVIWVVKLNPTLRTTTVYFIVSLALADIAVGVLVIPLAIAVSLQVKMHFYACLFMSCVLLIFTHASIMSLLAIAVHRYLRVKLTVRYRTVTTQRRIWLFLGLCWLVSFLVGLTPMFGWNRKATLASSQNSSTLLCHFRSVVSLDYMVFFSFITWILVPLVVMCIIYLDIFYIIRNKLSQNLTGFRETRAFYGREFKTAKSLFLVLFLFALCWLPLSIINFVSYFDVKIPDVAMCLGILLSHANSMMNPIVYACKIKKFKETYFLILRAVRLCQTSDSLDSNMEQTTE
Procedure: (§3) cLogP was calculated using ChemDraw Professional, v. 16.0. Binding selectivity for mA1Ar is expressed in terms of fold, compared to mA3AR (Data from Table 1).

hA1AR = molecular target: T3, hA1AR (Homo sapiens, UniProt P30542); test: Radioligand binding in membranes of CHO cells expressing hA1AR, [3H]N6-R-phenylisopropyladenosine; conditions: (h); Ki; read-out: A1AR % inhibition or Ki
T3 construct: expressed in transfected cells; host or cells: CHO
T3 sequence (P30542 1-326): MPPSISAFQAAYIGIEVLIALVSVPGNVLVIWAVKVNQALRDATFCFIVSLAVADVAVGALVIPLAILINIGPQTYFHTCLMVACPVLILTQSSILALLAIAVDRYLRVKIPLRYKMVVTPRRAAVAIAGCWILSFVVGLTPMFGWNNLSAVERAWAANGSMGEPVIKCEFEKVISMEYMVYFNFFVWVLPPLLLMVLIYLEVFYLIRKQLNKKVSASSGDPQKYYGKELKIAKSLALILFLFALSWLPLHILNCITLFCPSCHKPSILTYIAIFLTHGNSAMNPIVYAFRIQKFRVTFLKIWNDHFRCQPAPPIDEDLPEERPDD

rA1AR = molecular target: T4, rA1AR (Rattus norvegicus, UniProt P25099); test: Adenosine receptor binding, rA1AR; conditions: (r), read-out: A1AR % inhibition or Ki (converted)
T4 sequence (P25099 1-326): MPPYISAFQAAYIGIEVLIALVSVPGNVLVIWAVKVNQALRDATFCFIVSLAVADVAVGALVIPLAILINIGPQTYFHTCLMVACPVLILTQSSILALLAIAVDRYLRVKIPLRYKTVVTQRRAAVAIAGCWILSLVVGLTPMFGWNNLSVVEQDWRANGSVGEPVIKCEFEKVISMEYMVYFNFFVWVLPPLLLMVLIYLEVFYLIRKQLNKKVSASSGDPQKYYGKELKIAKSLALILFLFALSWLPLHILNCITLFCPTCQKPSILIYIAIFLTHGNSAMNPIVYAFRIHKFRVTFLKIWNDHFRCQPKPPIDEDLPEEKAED

[8] = tested on: off-target receptors (PDSP); test: Off-target interactions determined by the PDSP, whole screen; type: binding, human; conditions: no off-target interaction listed
hA2AAR = molecular target: T5, hA2AAR (Homo sapiens, UniProt P29274); test: Radioligand binding in membranes of HEK293 cells expressing hA2AAR; conditions: read-out: A2AAR % inhibition
T5 construct: expressed in transfected cells; host or cells: HEK293

mA3AR [9] = molecular target: T2, mA3AR; test: Adenosine receptor binding, mA3AR
mA1AR [10] = molecular target: T6, mA1AR (Mus musculus, UniProt Q60612); test: Adenosine receptor binding, mA1AR; conditions: for Ki: (m), read-out: A1AR % inhibition or Ki (converted)
T6 sequence (Q60612 1-326): T4 sequence (P25099 1-326) with V151E, D155A, R157I, D316E, L319I, E325D

mA1AR [11] = molecular target: T6, mA1AR; test: Guanine nucleotide ([35S]GTPγS) binding assay; type: biochemical
Procedure: as §3

mA2AAR = mA2AAR (Mus musculus, UniProt Q60613); test: Adenosine receptor binding, mA2AAR; conditions: read-out: A2AAR % inhibition (converted)
serotonin receptor 5HT2C = molecular target: T7, serotonin receptor 5HT2C (Homo sapiens, UniProt P28335); test: Off-target interaction determined by the PDSP; type: binding; conditions: read-out: Off-target, receptor (h, unless noted) (Ki, μM): 5HT2C
T7 sequence (P28335 33-458): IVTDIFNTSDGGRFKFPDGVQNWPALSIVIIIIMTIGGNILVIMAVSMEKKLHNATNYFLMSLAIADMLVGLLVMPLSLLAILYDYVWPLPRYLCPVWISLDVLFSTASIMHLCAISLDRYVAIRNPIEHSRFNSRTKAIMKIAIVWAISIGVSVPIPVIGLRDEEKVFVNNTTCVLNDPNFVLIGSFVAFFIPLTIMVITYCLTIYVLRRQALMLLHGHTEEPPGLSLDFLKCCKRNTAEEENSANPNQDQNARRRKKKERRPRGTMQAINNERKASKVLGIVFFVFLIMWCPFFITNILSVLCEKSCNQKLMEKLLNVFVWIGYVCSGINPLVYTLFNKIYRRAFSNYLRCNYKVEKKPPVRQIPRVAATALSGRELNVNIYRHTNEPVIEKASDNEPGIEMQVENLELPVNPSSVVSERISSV

serotonin receptor 5HT2B = serotonin receptor 5HT2B (Homo sapiens, UniProt P41595); test: Off-target interaction determined by the PDSP; type: binding; conditions: read-out: Off-target, receptor (h, unless noted) (Ki, μM): 5HT2B
sigma receptor σ2 = sigma receptor σ2 (UniProt Q5BJF2); test: Off-target interaction determined by the PDSP; type: binding, human; conditions: read-out: Off-target, receptor (h, unless noted) (Ki, μM): σ2
[12] = molecular target: dopamine transporter (DAT) (Homo sapiens, UniProt Q01959); test: Off-target interaction determined by the PDSP; type: binding; conditions: read-out: Off-target, receptor (h, unless noted) (Ki, μM): DAT
Sequence of dopamine transporter (DAT) (Q01959 whole entry): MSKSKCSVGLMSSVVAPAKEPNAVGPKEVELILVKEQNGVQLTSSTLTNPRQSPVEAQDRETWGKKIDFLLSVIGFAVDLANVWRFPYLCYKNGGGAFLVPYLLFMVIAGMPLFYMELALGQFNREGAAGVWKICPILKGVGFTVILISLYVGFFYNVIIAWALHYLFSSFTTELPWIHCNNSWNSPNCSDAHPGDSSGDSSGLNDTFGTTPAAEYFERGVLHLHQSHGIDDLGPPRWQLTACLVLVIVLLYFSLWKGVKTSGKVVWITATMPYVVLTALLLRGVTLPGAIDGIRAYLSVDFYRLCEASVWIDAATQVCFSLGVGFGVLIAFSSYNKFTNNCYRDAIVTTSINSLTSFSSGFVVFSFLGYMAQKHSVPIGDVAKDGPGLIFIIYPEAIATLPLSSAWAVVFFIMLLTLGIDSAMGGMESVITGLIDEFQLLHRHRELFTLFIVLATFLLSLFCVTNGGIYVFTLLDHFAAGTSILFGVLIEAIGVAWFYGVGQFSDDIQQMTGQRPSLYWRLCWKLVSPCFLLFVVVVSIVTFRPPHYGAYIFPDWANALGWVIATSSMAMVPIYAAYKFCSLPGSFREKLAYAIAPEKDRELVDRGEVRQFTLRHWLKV

T5 sequence (P29274 whole entry): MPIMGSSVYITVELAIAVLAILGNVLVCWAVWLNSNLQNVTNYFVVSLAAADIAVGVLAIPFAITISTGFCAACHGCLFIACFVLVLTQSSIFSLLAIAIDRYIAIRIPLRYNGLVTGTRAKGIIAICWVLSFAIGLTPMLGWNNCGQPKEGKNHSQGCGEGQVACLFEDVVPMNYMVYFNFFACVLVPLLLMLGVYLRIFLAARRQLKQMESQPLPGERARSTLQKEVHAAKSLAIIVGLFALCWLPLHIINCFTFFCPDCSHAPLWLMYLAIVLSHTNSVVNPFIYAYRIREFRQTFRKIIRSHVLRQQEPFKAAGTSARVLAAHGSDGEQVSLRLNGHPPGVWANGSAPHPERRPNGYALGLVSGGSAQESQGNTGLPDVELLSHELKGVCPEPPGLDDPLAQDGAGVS
Sequence of mA2AAR (Q60613 whole entry): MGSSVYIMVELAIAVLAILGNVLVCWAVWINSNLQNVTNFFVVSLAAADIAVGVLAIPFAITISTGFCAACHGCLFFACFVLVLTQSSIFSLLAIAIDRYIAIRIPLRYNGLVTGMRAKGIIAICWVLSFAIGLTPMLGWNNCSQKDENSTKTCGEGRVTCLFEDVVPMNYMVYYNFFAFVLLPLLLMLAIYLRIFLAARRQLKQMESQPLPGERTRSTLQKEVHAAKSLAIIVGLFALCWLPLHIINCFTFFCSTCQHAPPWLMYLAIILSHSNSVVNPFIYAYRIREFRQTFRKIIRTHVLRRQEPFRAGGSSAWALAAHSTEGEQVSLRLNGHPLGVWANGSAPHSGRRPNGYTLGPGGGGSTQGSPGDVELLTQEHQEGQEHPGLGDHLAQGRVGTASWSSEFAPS
Sequence of serotonin receptor 5HT2B (P41595 whole entry): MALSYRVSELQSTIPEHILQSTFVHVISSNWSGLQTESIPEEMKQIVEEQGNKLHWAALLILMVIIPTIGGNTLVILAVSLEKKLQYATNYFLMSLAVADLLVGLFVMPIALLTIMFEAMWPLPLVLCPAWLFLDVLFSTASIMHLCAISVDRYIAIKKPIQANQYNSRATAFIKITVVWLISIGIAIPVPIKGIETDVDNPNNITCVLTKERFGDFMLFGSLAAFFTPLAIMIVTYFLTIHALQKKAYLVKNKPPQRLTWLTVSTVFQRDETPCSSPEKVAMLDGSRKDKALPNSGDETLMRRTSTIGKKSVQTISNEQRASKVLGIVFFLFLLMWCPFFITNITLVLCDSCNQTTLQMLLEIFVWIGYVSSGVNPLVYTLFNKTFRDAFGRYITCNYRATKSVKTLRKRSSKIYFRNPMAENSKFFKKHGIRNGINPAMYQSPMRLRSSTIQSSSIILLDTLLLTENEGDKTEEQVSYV

Structure (SMILES)	rat, % free [2] [%]	human, % free [3] [%]	mouse, % free [5] [%]	Ki (hA3AR) [nM]	Emax at 10 µM (mA3AR [7]) [%]	Ki (hA1AR) [nM]	Off-target, receptor (h, unless noted) [8]	inhibition at 10 µM (hA2AAR) [%]	also measured
O[C@@H]1[C@H](O)[C@@H]2C[C@@H]2[C@H]1n1cnc2c(NC(C3CC3)C3CC3)nc(Cl)nc21 [MRS5474, reference compound]									average immobility times versus the control group of mice (mice; 1 hour after administration): lower than the average immobility times exhibited by the control group of mice; average immobility times versus mice treated with fluoxetine (mice; fluoxetine 10 mg/kg): approximately twice longer; initial amount present in simulated gastric fluid [1]: 51%
OC[C@H]1O[C@@H](n2cnc3c(NC(C4CCC4)C4CCC4)ncnc32)[C@H](O)C1O (stereo in doubt) [Compound 9, (2R,3R,4R,5R)-2-(6-((Dicyclobutylmethyl)amino)-9H-purin-9-yl)-5-(hydroxymethyl)tetrahydrofuran-3,4-diol]	14.6 ± 0.01	6.05 ± 1.60	20.6 ± 1.2	10600	70 ± 9				Activity (counts) (wild-type C57BL/6J mice [4]; 3 mg/kg ip): 6.6 ± 2.3 counts; ARs causing hypothermia (wild-type C57BL/6J mice [6]; 3 mg/kg ip, WT and AR-KO mice (FIG. 2)): A1AR selective; Tb (° C.) (wild-type C57BL/6J mice [6]; 3 mg/kg ip): 33.0 ± 0.7 °C
CNC(=O)[C@H]1O[C@@H](n2cnc3c(N)ncnc32)[C@H](O)[C@@H]1O [Compound 15, reference compound]				24.4		36.7	none		Ki (rA1AR): 84 nM; Ki (hA2AAR; (h), values without % sign (Ki)): 466 ± 95 nM
Nc1nc(Cl)nc2c1ncn2[C@H]1[C@H](O)[C@H](O)[C@]2(CO)C[C@H]12 [Compound 21]							none		Ki (rA1AR): 273 nM
OC[C@@]12C[C@@H]1[C@@H](n1cnc3c(N[C@H]4C[C@H]5CC[C@@H]4C5)nc(Cl)cc31)[C@H](O)[C@@H]2O [Compound 30, (1R,2R,3S,4R,5S)-4-(4-(((1R,2S,4S)-Bicyclo[2.2.1]heptan-2-yl)amino)-6-chloro-1H-imidazo[4,5-c]pyridin-1-yl)-1-(hydroxymethyl)bicyclo[3.1.0]hexane-2,3-diol]				145 ± 74		240 ± 19	none	29 ± 13	
O[C@H]1[C@H](n2cnc3c(N[C@H]4C[C@H]5CC[C@@H]4C5)nc(Cl)nc32)[C@H]2C[C@@]2(CCl)[C@H]1O [Compound 31, (1S,2R,3S,4R,5S)-4-(6-(((1R,2S,4S)-Bicyclo[2.2.1]heptan-2-yl)amino)-2-chloro-9H-purin-9-yl)-1-(chloromethyl)bicyclo[3.1.0]hexane-2,3-diol]	2.53 ± 0.45	4.04 ± 0.60	2.95 ± 0.84	456 ± 201	50 ± 11	44.8 ± 1.3	none	54 ± 8	Activity (counts) (wild-type C57BL/6J mice [4]; 3 mg/kg ip): 16.8 ± 3.6 counts; Ki (mA3AR [9]; (m), Ki, read-out: A3AR % inhibition or Ki (converted)): 503 nM; Tb (° C.) (wild-type C57BL/6J mice [6]; 3 mg/kg ip): 36.6 ± 0.5 °C; Ki (mA1AR [10]): 1.86 nM; Binding selectivity for mA1AR (mA1AR [10]; compared to mA3AR): (270) fold; Emax at 10 µM (mA1AR [11]): 123 ± 16%; inhibition at 10 µM (mA2AAR): 15%
NC(=O)c1ncn([C@H]2[C@H](O)[C@H](O)[C@]3(CO)C[C@H]23)n1 [Compound 40, 1-((1S,2R,3S,4R,5R)-3,4-Dihydroxy-5-(hydroxymethyl)bicyclo[3.1.0]hexan-2-yl)-1H-1,2,4-triazole-3-carboxamide]	> 80	> 80	> 80		31 ± 3	495 ± 35		11 ± 3	Ki (serotonin receptor 5HT2C): 2.35 µM; Activity (counts) (wild-type C57BL/6J mice [4]; 10 mg/kg ip): 19.1 ± 5.3 counts; inhibition at 10 µM (mA3AR [9]; read-out: A3AR % inhibition or Ki): 47 ± 2%; Ki (serotonin receptor 5HT2B): 1.91 µM; inhibition at 10 µM (hA3AR): 41 ± 6%; Tb (° C.) (wild-type C57BL/6J mice [6]; 10 mg/kg ip): 35.7 ± 0.7 °C; selectivity ratio (mA1AR [10]): 400; Ki (mA1AR [10]): 25.2 ± 2.8 nM; Ki (sigma receptor σ2): 2.09 µM; Ki [12]: 6.61 µM
